Data published in paper PMC9307114, “Discovery and SAR analysis of phenylbenzo[d][1,3]dioxole-based proprotein convertase subtilisin/kexin type 9 inhibitors” (Journal of Enzyme Inhibition and Medicinal Chemistry, 2022).

Tests used:
PCSK9/LDLR PPI = PCSK9/LDLR PPI (Homo sapiens, UniProt Q8NBP7); experiment: PCSK9-LDLR TR-FRET assay (PCSK9/LDLR PPI inhibitory screening); format: binding; details: for inhibition at 10 µM: mean of three experiments, read-out: PCSK9 percentage inhibitory rate; for IC50: dose-dependent IC50 plot, Figure 3, read-out: PCSK9 IC50 (inhibition of PCSK9/LDLR PPI)
Method: The PCSK9/LDLR time-resolved fluorescence resonance energy transfer (TR-FRET) assay was performed to evaluate the activity of synthesised compounds in inhibition of PCSK9-LDLR binding. The A series compounds were firstly synthesised for the PCSK9/LDLR PPI inhibitory test. […] Therefore, a group of A12 derivatives (B series) were synthesised with 4-chlorobenzyl substituted in the amino group and various substitutions introduced to the carboxylic group. […] To confirm whether the 4-chloromethyl group is essential for the PPI inhibitory activity, a new series of compounds (C series) were synthesised with the 4-chloromethyl group replaced by 4-methoxymethyl moiety. The inhibitory activity was observed, most likely resulting from the 4-methoxymethyl substitution (Table 3).
The compounds were dissolved in 100% DMSO; then 2 µL of the dilution was added to a 20 µL of reaction to keep […] in all of reactions. The binding reaction was conducted at room temperature. The reaction mixture in assay buffer contains PCSK9, the indicated amount of the inhibitor, ligand LDLR, and the reaction dyes. The reaction mixture was incubated for 120 min before detection of the TR-FRET signal. Fluorescence signals for both the donor and acceptor dyes were measured using a Tecan Infinite M1000 plate reader. TR-FRET was recorded as the ratio of the fluorescence of the acceptor and the donor dyes (acceptor/donor). The TR-FRET data were analysed using Graphpad Prism software.

HepG2 cells = experiment: MTT assay on HepG2 cells; format: cell-based; details: Homo sapiens, mean of three experiments, read-out: HepG2 percentage inhibitory rate
[1] = system: LDLR level on the surface of HepG2 cells; experiment: LDLR expression assay, In-Cell Western (ICW), in the presence of PCSK9; format: cell-based, human; details: HepG2 cells in the presence of PCSK9, compared with positive control SBC-115337
Method: LDLR is degraded in lysosomes by binding to PCSK9. Thus, inhibition of PCSK9/LDLR PPI could increase the LDLR level on the surface of hepatocytes. In the current study, human hepatic HepG2 cells were selected for the investigation of the active compounds for LDLR expression. SBC-115337, developed by Shifa Biomedical Corporation, as a potent PCSK9/LDLR PPI inhibitor was utilised as the positive control. All the synthesised compounds were evaluated to be safe with low inhibitory ratios at the dose of 10 µM in the MTT assay (Tables 1–3). Then, in cell western (ICW) assay was performed to detect the LDLR level on the surface of HepG2 cells.
The HepG2 cell line was grown in a humidified incubator with 5% CO2 at 37 °C and cultured in DMEM-High glucose medium with 10% (v/v) heat-inactivation foetal bovine serum, 2 mM L-glutamine and 100 U/ml penicillin-streptomycin. The expression level of LDLR in HepG2 cells was determined by In-Cell Western (ICW) Assay as described previously. Briefly, cells were plated in a 96-well plate (2 × 10^4 cells per well) and cultured for more than 24 h, followed by washing with PBS and starving overnight in DMEM without FBS. HepG2 cells were treated with 4.0 μg/ml PCSK9 (K9) alone and the tested compounds with the presence of 4.0 μg/ml of K9, and vehicle (PBS) for 8 h. Then cells were washed with PBS one time and fixed in 4% paraformaldehyde for 20 min. Cells were washed 5 times with PBS, then were blocked with 5% BSA in PBS for 1 h. LDLR monoclonal Antibody solution (1:1000 in 5% BSA in PBS, 50.0 μL/well) was incubated overnight at 4 °C. Subsequently, the cells were washed 5 times with PBS. Goat anti-mouse IgG-HRP secondary antibody solution (1:2000 in 5% BSA in PBS, 50.0 μL/well) was added and incubated 1 h at RT. Then cells were washed 5 times with PBS and added with TMB substrate, then incubated at RT until desired colour was developed. 50.0 μL/well of 2 M H2SO4 were added to stop the reaction and the absorbance at 450 nm was measured using a plate reader (EnSpire, Perkin Elmer Corporation).

[2] = system: LDL uptake of HepG2 cells; experiment: Fluorescent LDL uptake assay in the presence of PCSK9; format: cell-based, human; details: PCSK9 treatment group 29.82%
Method: Extracellular LDL uptake assay was performed to evaluate the functional effects of PCSK9/LDLR PPI inhibition. The effects of active compounds in improving the capacity of HepG2 cells to uptake the fluorescent LDL were investigated using SBC-115337 as the positive control. […] The tested compound A12, B1, B3, B4 and B14 strengthened the ability of HepG2 cells to absorb LDL from 29.82% of the PCSK9 treatment group up to 32.78%, 33.29%, 39.58%, 36.24% and 42.41% at the doses of 5 µM, and 44.80%, 47.15%, 50.67%, 49.94 and 64.27% at the doses of 10 µM, respectively.
HepG2 cells (2 × 10^4 cells per well) were seeded in black 96-well plates and cultured for more than 24 h. The following day, cells were treated with 4.0 μg/ml K9 alone and the tested compounds with the presence of 4.0 μg/ml of K9, and vehicle (PBS) for 8 h. At the end of the treatments, the culture medium was replaced with 50.0 μl/well LDL-DyLight™ 550 working solution (Cayman Chemical Company, US). The cells were additionally incubated for 16 h at 37 °C. Then the cells were washed with PBS one time, then added PBS with 100.0 μl/well. The degree of LDL uptake was measured using a plate reader (EnSpire, Perkin Elmer Corporation) at excitation wavelengths 540 nm and emission wavelengths 570 nm.

[3] = 5 µM compound with 4.0 μg/ml PCSK9
[4] = 10 µM compound with 4.0 μg/ml PCSK9

Chain of PCSK9/LDLR PPI (Q8NBP7 153-692): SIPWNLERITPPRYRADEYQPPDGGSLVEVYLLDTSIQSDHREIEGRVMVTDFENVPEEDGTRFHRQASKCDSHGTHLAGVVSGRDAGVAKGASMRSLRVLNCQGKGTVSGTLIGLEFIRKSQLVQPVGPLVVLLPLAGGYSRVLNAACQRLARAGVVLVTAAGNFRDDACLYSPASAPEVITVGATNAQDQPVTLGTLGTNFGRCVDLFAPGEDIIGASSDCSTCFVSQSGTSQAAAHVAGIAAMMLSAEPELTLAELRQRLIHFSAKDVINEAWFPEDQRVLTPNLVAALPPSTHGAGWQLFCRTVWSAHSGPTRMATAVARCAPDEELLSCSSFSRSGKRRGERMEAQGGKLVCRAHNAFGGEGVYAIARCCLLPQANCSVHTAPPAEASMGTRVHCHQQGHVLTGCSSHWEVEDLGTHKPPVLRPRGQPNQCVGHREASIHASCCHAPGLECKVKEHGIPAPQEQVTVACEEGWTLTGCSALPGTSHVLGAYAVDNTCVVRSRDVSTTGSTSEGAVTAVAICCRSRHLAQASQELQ
Chain of PCSK9/LDLR PPI (Q8NBP7 31-152 partner limits assumed): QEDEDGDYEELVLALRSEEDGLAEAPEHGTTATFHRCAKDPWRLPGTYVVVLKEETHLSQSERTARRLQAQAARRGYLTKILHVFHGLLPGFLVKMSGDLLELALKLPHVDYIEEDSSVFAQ

inhibition at 10 µM (PCSK9/LDLR PPI) [%] | IC50 (PCSK9/LDLR PPI) [µM] | SMILES | inhibition at 10 µM (HepG2 cells) [%] | effect on LDLR protein level (in words) [1] | LDL uptake of HepG2 cells [2, 3] [%] | LDL uptake of HepG2 cells [2, 4] [%]
21.6 ± 1.67 | – | COCc1ccc(C(=O)Nc2cc3c(cc2-c2ccc(C(=O)Nc4cc(OC)cc(OC)c4)cc2)OCO3)cc1 [C1, N-(3,5-dimethoxyphenyl)-4-(6-(4-(methoxymethyl)benzamido)benzo[d][1,3]dioxol-5-yl)benzamide] | 6.21 ± 0.22 | – | – | –
17.8 ± 1.24 | – | COCc1ccc(C(=O)Nc2cc3c(cc2-c2ccc(C(=O)N4CCN(C(=O)OC(C)(C)C)CC4)cc2)OCO3)cc1 [C2, Tert-butyl4-(4-(6-(4-(methoxymethyl)benzamido)benzo[d][1,3]dioxol-5-yl)benzoyl)piperazine-1-carboxylate] | 13.5 ± 1.13 | – | – | –
25.3 ± 2.11 | – | COCc1ccc(C(=O)Nc2cc3c(cc2-c2ccc(C(=O)N4CCN(c5ccc(OC)cc5)CC4)cc2)OCO3)cc1 [C3, 4-(Methoxymethyl)-N-(6-(4-(4-(4-methoxyphenyl)piperazine-1-carbonyl)phenyl)benzo[d][1,3]dioxol-5-yl)benzamide] | 6.62 ± 0.45 | – | – | –
7.55 ± 0.71 | – | COCc1ccc(C(=O)Nc2cc3c(cc2-c2ccc(C(=O)N4CCN(c5ccccc5OC)CC4)cc2)OCO3)cc1 [C4, 4-(Methoxymethyl)-N-(6-(4-(4-(2-methoxyphenyl)piperazine-1-carbonyl)phenyl)benzo[d][1,3]dioxol-5-yl)benzamide] | 6.77 ± 0.62 | – | – | –
5.92 ± 0.32 | – | COCc1ccc(C(=O)Nc2cc3c(cc2-c2ccc(C(=O)N4CCN(CCc5ccccc5)CC4)cc2)OCO3)cc1 [C5, 4-(Methoxymethyl)-N-(6-(4-(4-phenethylpiperazine-1-carbonyl)phenyl)benzo[d][1,3]dioxol-5-yl)benzamide] | 5.63 ± 0.37 | – | – | –
3.39 ± 1.67 | – | COCc1ccc(C(=O)Nc2cc3c(cc2-c2ccc(C(=O)N4CCN(c5ccccc5)CC4)cc2)OCO3)cc1 [C6, 4-(Methoxymethyl)-N-(6-(4-(4-phenylpiperazine-1-carbonyl)phenyl)benzo[d][1,3]dioxol-5-yl)benzamide] | 6.15 ± 0.26 | – | – | –
33.4 ± 1.52 | – | COCc1ccc(C(=O)Nc2cc3c(cc2-c2ccc(C(=O)N4CCN(c5ccc(F)cc5)CC4)cc2)OCO3)cc1 [C7, N-(6-(4-(4-(4-fluorophenyl)piperazine-1-carbonyl)phenyl)benzo[d][1,3]dioxol-5-yl)-4-(methoxymethyl)benzamide] | 12.8 ± 1.07 | – | – | –
25.7 ± 1.2 | – | COCc1ccc(C(=O)Nc2cc3c(cc2-c2ccc(C(=O)N4CCN(c5ccc(Cl)cc5)CC4)cc2)OCO3)cc1 [C8, N-(6-(4-(4-(4-chlorophenyl)piperazine-1-carbonyl)phenyl)benzo[d][1,3]dioxol-5-yl)-4-(methoxymethyl)benzamide] | 14.5 ± 1.22 | – | – | –
3.75 ± 0.33 | – | COCc1ccc(C(=O)Nc2cc3c(cc2-c2ccc(C(=O)Nc4ccc(N5CCN(C)CC5)cc4)cc2)OCO3)cc1 [C9, 4-(Methoxymethyl)-N-(6-(4-((4-(4-methylpiperazin-1-yl)phenyl)carbamoyl)phenyl)benzo[d][1,3]dioxol-5-yl)benzamide] | 6.22 ± 0.24 | – | – | –
5.48 ± 0.2 | – | COCc1ccc(C(=O)Nc2cc3c(cc2-c2ccc(C(=O)NC(C)C)cc2)OCO3)cc1 [C10, N-isopropyl-4-(6-(4-(methoxymethyl)benzamido)benzo[d][1,3]dioxol-5-yl)benzamide] | 6.76 ± 0.18 | – | – | –

Further lines, the molecule ahead of its results:

SMILES | inhibition at 10 µM (PCSK9/LDLR PPI) [%] | IC50 (PCSK9/LDLR PPI) [µM] | inhibition at 10 µM (HepG2 cells) [%] | effect on LDLR protein level (in words) [1] | LDL uptake of HepG2 cells [2, 3] [%] | LDL uptake of HepG2 cells [2, 4] [%]
COc1cc(NC(=O)c2ccc(-c3cc4c(cc3NC(=O)c3ccc(CCl)cc3)OCO4)cc2)cc(OC)c1OC [A12, 4-(Chloromethyl)-N-(6-(4-((3,4,5-trimethoxyphenyl)carbamoyl)phenyl)benzo[d][1,3]dioxol-5-yl)benzamide] | 45.1 ± 0.12 | 70.8 | 7.85 ± 0.25 | restored the LDLR protein level in a dose dependent manner | 32.78 | 44.80
O=C(Nc1ccc(Cl)cc1)c1ccc(-c2cc3c(cc2NC(=O)c2ccc(CCl)cc2)OCO3)cc1 [B1, 4-(Chloromethyl)-N-(6-(4-((4-chlorophenyl)carbamoyl)phenyl)benzo[d][1,3]dioxol-5-yl)benzamide] | 54.3 ± 1.54 | 62.2 | 9.97 ± 0.39 | restored the LDLR protein level in a dose dependent manner | 33.29 | 47.15
O=C(Nc1ccc(F)cc1)c1ccc(-c2cc3c(cc2NC(=O)c2ccc(CCl)cc2)OCO3)cc1 [B3, 4-(Chloromethyl)-N-(6-(4-((4-fluorophenyl)carbamoyl)phenyl)benzo[d][1,3]dioxol-5-yl)benzamide] | 46.3 ± 2.77 | 23.4 | 8.09 ± 0.76 | restored the LDLR protein level in a dose dependent manner | 39.58 | 50.67
O=C(Nc1cc2c(cc1-c1ccc(C(=O)N3CCN(c4ccc(F)cc4)CC3)cc1)OCO2)c1ccc(CCl)cc1 [B17, 4-(Chloromethyl)-N-(6-(4-(4-(4-fluorophenyl)piperazine-1-carbonyl)phenyl)benzo[d][1,3]dioxol-5-yl)benzamide] | 4.07 ± 0.25 | – | 16.4 ± 1.18 | – | – | –
CCN1CCN(C(=O)c2ccc(-c3cc4c(cc3NC(=O)c3ccc(CCl)cc3)OCO4)cc2)CC1 [B18, 4-(Chloromethyl)-N-(6-(4-(4-ethylpiperazine-1-carbonyl)phenyl)benzo[d][1,3]dioxol-5-yl)benzamide] | 5.66 ± 0.02 | – | 6.76 ± 0.26 | – | – | –
CC(C)N1CCN(C(=O)c2ccc(-c3cc4c(cc3NC(=O)c3ccc(CCl)cc3)OCO4)cc2)CC1 [B19, 4-(Chloromethyl)-N-(6-(4-(4-isopropylpiperazine-1-carbonyl)phenyl)benzo[d][1,3]dioxol-5-yl)benzamide] | 5.82 ± 0.31 | – | 8.38 ± 0.81 | – | – | –
CC(C)NC(=O)c1ccc(-c2cc3c(cc2NC(=O)c2ccc(CCl)cc2)OCO3)cc1 [B20, 4-(Chloromethyl)-N-(6-(4-(isopropylcarbamoyl)phenyl)benzo[d][1,3]dioxol-5-yl)benzamide] | 3.15 ± 0.13 | – | 9.55 ± 0.43 | – | – | –
